Experimental findings from patent publication US20170057958A1, “ENANTIOMERS OF THE N-(2-AMINO-5-FLUORO-2-METHYLPENTYL)-8-[(2,6-DIFLUOROBENZYL)OXY]-2-METHYLIMIDAZO[1,2-A]PYRIDINE-3-CARBOXAMIDE, AS WELL AS OF THE DI- AND TRIFLUORO DERIVATIVES FOR THE TREATMENT OF CARDIOVASCULAR DISEASES” (BAYER PHARMA AKTIENGESELLSCHAFT, priority 2014, published 2017) are described below.

The experiment relates to recombinant guanylate cyclase reporter cell line. In words: Effect on a recombinant guanylate cyclase reporter cell line. The format is cell-based. Particulars: in some cases mean values for individual determinations. Here is the method: B-2. Effect on a Recombinant Guanylate Cyclase Reporter Cell Line
The cellular activity of the compounds according to the invention is determined using a recombinant guanylate cyclase reporter cell line, as described in F. Wunder et al., Anal. Biochem. 339, 104-112 (2005).
Representative MEC values (MEC=minimum effective concentration) for the compounds of the invention are shown in the table below (in some cases as mean values for individual determinations): […]
As for `Cc1nc2c(OCc3c(F)cccc3F)cccn2c1C(=O)NCC(C)(N)CCCF` (single isomer, unassigned; enantiomer a) [Example 1, ent-N-(2-amino-5-fluoro-2-methylpentyl)-8-[(2,6-difluorobenzyl)oxy]-2-methylimidazo[1,2-a]pyridine-3-carboxamide (enantiomer A)], the “MEC (minimum effective concentration)” value turned out to be 0.3 µM.
The figure for `Cc1nc2c(OCc3c(F)cccc3F)cccn2c1C(=O)NCC(C)(N)CC(F)F` (single isomer, unassigned; enantiomer a) [Example 3, ent-N-(2-amino-4,4-difluoro-2-methylbutyl)-8-[(2,6-difluorobenzyl)oxy]-2-methylimidazo[1,2-a]pyridine-3-carboxamide (enantiomer A)] is 0.3 µM; for `Cc1nc2c(OCc3c(F)cccc3F)cccn2c1C(=O)NCC(C)(N)CCC(F)(F)F` (single isomer, unassigned; enantiomer a) [Example 5, ent-N-(2-amino-5,5,5-trifluoro-2-methylpentyl)-8-[(2,6-difluorobenzyl)oxy]-2-methylimidazo[1,2-a]pyridine-3-carboxamide (enantiomer A)] it is 0.1 µM.
To `Cc1nc2c(OCc3c(F)cccc3F)cccn2c1C(=O)NCC(C)(N)CCCF` (single isomer, unassigned; enantiomer b) [Example 2, ent-N-(2-amino-5-fluoro-2-methylpentyl)-8-[(2,6-difluorobenzyl)oxy]-2-methylimidazo[1,2-a]pyridine-3-carboxamide (enantiomer B)] belongs 0.3 µM; to `Cc1nc2c(OCc3c(F)cccc3F)cccn2c1C(=O)NCC(C)(N)CC(F)F` (single isomer, unassigned; enantiomer b) [Example 4, ent-N-(2-amino-4,4-difluoro-2-methylbutyl)-8-[(2,6-difluorobenzyl)oxy]-2-methylimidazo[1,2-a]pyridine-3-carboxamide (enantiomer B)], 0.3 µM; to `Cc1nc2c(OCc3c(F)cccc3F)cccn2c1C(=O)NCC(C)(N)CCC(F)(F)F` (single isomer, unassigned; enantiomer b) [Example 6, ent-N-(2-amino-5,5,5-trifluoro-2-methylpentyl)-8-[(2,6-difluorobenzyl)oxy]-2-methylimidazo[1,2-a]pyridine-3-carboxamide (enantiomer B)], 0.03 µM.
With `Cc1nc2c(OCc3c(F)ccc(F)c3F)cccn2c1C(=O)NCC(C)(N)CCC(F)(F)F` (single isomer, unassigned; enantiomer b) [Example 7, ent-N-(2-amino-5,5,5-trifluoro-2-methylpentyl)-2-methyl-8-[(2,3,6-trifluorobenzyl)oxy]imidazo[1,2-a]pyridine-3-carboxamide (enantiomer B)], the “MEC (minimum effective concentration)” value is 0.09 µM.
